Like-named read-outs stand apart in the source and are kept apart here.
Tests used:
T. brucei wild-type = assay: Drug sensitivity, wild-type parental line; type: cell-based, T. b. brucei; conditions: Trypanosoma brucei; weighted mean of ≥3 independent experiments
Method: (§1) Drug sensitivity assays were carried out with BSF T. b. brucei “single marker” S427 or BSF T. b. brucei, Lister 427, MiTat 1.2, clone 221a 2T1 cells,[45] cells grown at 37 °C with 5% CO2 in an HMI-9T medium[46] as previously described.[47] 2T1 cells were initially maintained with 1 μg mL^–1 puromycin and 1 μg mL^–1 phleomycin prior to transfection or 2.5 μg mL^–1 hygromycin and 1 μg mL^–1 phleomycin after transfection. Induction of overexpression was achieved by the addition of 1 μg mL^–1 tetracycline to the culture medium.
(§2) Compound-resistant cell lines were generated by subculturing a clone of T. brucei in the continuous presence of 38. Starting at sublethal concentrations, drug concentrations in two independent cultures were increased in a stepwise manner, usually 2-fold. When parasites were able to survive and grow in concentrations of drugs equivalent to more than 10 times the established EC50 value, the resulting cell lines were cloned by limiting dilution in the presence of the compound. Two clones (RES I-II) were selected for further biological study. A standard alkaline lysis protocol was used to isolate genomic DNA from compound-resistant bloodstream T. brucei parasites (∼1 × 10^8). Whole genome sequencing was performed using a DNB-seq next-generation sequencing platform (BGI, Hong Kong). Sequencing reads (150 bp) were aligned to the T. brucei TREU927 genome (v39; tritrypDB) using Bowtie2[48] and Samtools[49] software. […] Samtools and BCFtools[52] (mpileup) were used to call SNP and indels compared with the wild-type starter clone, where the overall quality score (QUAL) was >100. Artemis[50] was used to analyze chromosome and gene copy number variation, as well as visualization of SNPs.

T. brucei RES I = assay: Drug sensitivity, compound 38-resistant clone RES I; type: cell-based, T. b. brucei
Method: as §1, §2

T. brucei RES II = assay: Drug sensitivity, compound 38-resistant clone RES II; type: cell-based, T. b. brucei
Method: as §1, §2

[1] = system: Tb927.8.6290 overexpressing cell lines (WT); assay: Drug sensitivity, line overexpressing Tb927.8.6290 WT; type: cell-based, T. b. brucei; conditions: for EC50: Trypanosoma brucei
Method: as §1
(§3) The following primers were used to PCR amplify Tb927.8.6290 from genomic DNA isolated from wild-type and 38-resistant trypanosomes 5′-[…]-3′ (PacI site in bold) and 5′-[…]-3′ (BamHI site in bold). The PCR products (1272 bp) were then cloned into the pRPa plasmid.[53] The accuracy of the plasmid constructs was confirmed by in-house Sanger sequencing and then linearized with AscI prior to transfection. The linearized plasmids were introduced into 2T1 T. b. brucei cells following removal of puromycin from the media and selected with 2.5 μg mL^–1 hygromycin and 1 μg mL^–1 phleomycin. Two independent clones were selected for further studies.

[2] = system: Tb927.8.6290 overexpressing cell lines (A258P); assay: Drug sensitivity, line overexpressing Tb927.8.6290 A258P; type: cell-based, T. b. brucei; conditions: for EC50: Trypanosoma brucei
Method: as §1, §3

[3] = system: Tb927.8.6290 overexpressing cell lines (V241F/A258V); assay: Drug sensitivity, line overexpressing Tb927.8.6290 V241F/A258V; type: cell-based, T. b. brucei; conditions: for EC50: Trypanosoma brucei
Method: as §1, §3

[4] = system: BSF T. b. brucei “single marker” S427; assay: Drug sensitivity assay with bloodstream-form T. brucei; type: cell-based; conditions: Trypanosoma brucei; mean values; number of replicates in parentheses
Method: (§4) Drug sensitivity assays with BSF T. b. brucei “single marker” S427 and human MRC-5 fibroblasts were conducted as previously described.[43]

[5] = Mammalian cell counter screen (MRC-5); type: cell-based, human; conditions: human, MRC-5 fibroblasts; mean values; number of replicates in parentheses
Method: as §4

human MRC-5 fibroblasts = assay: Mammalian cell counter screen (MRC-5); type: cell-based
Method: as §4

[6] = Mouse liver microsomal intrinsic clearance; type: in vitro ADME
In short: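 Compound (0.5 μM) incubated with liver microsomes (0.5 mg/mL, 50 mM potassium phosphate pH 7.4) and excess NADPH; samples quenched at 0–30 min and analysed by UPLC–MS/MS. Rate constant from exponential decay of compound/internal standard ratio; CLint scaled with 52.5 mg protein/g liver.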

TbGSK3 = system: TbGSK3; set-up: method as in PMID 23776181; conditions: recombinant enzyme, previously established; cited from earlier work
[7] = relative to the parental wild-type, in brackets

Nc1nc(Nc2ccccc2)sc1C(=O)c1c(F)cccc1F [Compound 69, reference compound]
EC50 (T. brucei wild-type): 150 ± 3 nM | EC50 (T. brucei RES I; Trypanosoma brucei, read-out: EC50, RES I): 360 ± 16 nM | fold resistance, RES I (T. brucei RES I; [7]): 2 | EC50 (T. brucei RES II; Trypanosoma brucei, read-out: EC50, RES II): 390 ± 28 nM | fold resistance, RES II (T. brucei RES II; [7]): 3 | EC50 ([1]; read-out: EC50, WT +TET): 410 ± 19 nM | EC50 ([1]; read-out: EC50, WT –TET): 170 ± 4 nM | fold shift, WT ([1]; −TET vs +TET EC50, in brackets): 2 | EC50 ([2]; read-out: EC50, A258P +TET): 1400 ± 35 nM | EC50 ([2]; read-out: EC50, A258P –TET): 200 ± 9 nM | fold shift, A258P ([2]; −TET vs +TET EC50, in brackets): 7 | EC50 ([3]; read-out: EC50, V241F/A258V +TET): 1200 ± 51 nM | EC50 ([3]; read-out: EC50, V241F/A258V –TET): 180 ± 11 nM | fold shift, V241F/A258V ([3]; −TET vs +TET EC50, in brackets): 6

CC(C)(C)C(=O)c1sc(NC2CCCCC2)nc1N [Compound 1, 1-(4-Amino-2-(cyclohexylamino)thiazol-5-yl)-2,2-dimethylpropan-1-one]
EC50 [4]: 470 nM | EC50 [5]: > 50000 nM | selectivity over MRC-5 cell line (human MRC-5 fibroblasts): ~200 fold | SI (human MRC-5 fibroblasts; selectivity index (EC50 MRC5/EC50 T. brucei)): >100 | CLint (mouse) [6]: 2.5 mL·min/g | IC50 (TbGSK3): 12000 nM
